In brackets after ≈: the same amount, converted by molar mass.

One test concerns Δ6-Pore cells. Briefly: Minimal inhibitory concentration (MIC) of fluorescent probes. The class given is cell-based, P. aeruginosa. The source says: For assessing antibacterial activities, compounds will be analyzed against four strains of P. aeruginosa: WT and ΔEfflux (lacking mexAB-OprM, mexCD-OprJ, mexXY), and their hyperporinated variants WT-Pore and ΔEfflux-Pore (FIGS. 2A-C) (Krishnamoorthy et al., 2016 and Krishnamoorthy et al., 2017). Based on minimal inhibitory concentrations (MIC) and growth IC50, compounds will be grouped as affected by efflux or by OM barriers. […] The inventors expect that at least 50% of the compounds in the library will have antibacterial activities in the hyperporinated efflux-deficient ΔEfflux-Pore. The -fold changes in MICs in the four strains will be used to guide selection of the compounds for detailed studies.
The inventors will use a fluorescence-based assay in which a fluorescent probe, a substrate of efflux pumps, reports EPI activities. Exponentially grown cells will be transferred into a defined medium, dispensed into 96-well plates with increasing concentrations of EPIs, and incubated for a pre-determined time. The probe will be added to cells and fluorescence recorded at different time points. Compounds with efflux inhibiting activities will increase the uptake of the probe and as a result increase the probe fluorescence (FIG. 3) (Abdali et al., 2017). […]

For test [1], the system named is E. coli BW25113 and P. aeruginosa PAO1. Kind of test: Screen of NCI Diversity sets for antibacterial and EPI activities, with profiling of actives. The class given is cell-based. The source says:
The inventors screened NCI Diversity sets in E. coli BW25113 and P. aeruginosa PAO1 for antibacterial and EPI activities. From ˜2,000 compounds tested, the inventors identified 34 active compounds (Abdali et al., 2017). […] Synthetic procedures for modifying NSC 60339 has been described before (Abdali et al., 2017 and Gamage et al., 2013). Because clinically-important antibiotics are extensively optimized, the inventors have chosen to focus on fluoroquinolones, tetracyclines, oxazolidinones, phenicols and macrolides/ketolides representatives that are known to penetrate through both the LPS-phospholipid bilayer and porins of the OM and include both broad and narrow spectrum antibiotics.

For test [2], the system named is E. coli strains BW25113, ΔEfflux, WT-Pore and ΔEfflux-Pore. Kind of test: Fluorescence-based intracellular uptake of compounds in efflux-proficient, efflux-deficient and hyperporinated cells (FIG. 3). The following applies: when the cell envelope is compromised, excitation 335 nm. The protocol:
For Hoechst or compound uptake experiments, overnight grown cells will be re-inoculated into 30 ml LB broth and grown until OD600 of 1. The cells will then pelleted by centrifugation for 15 min at room temperature and washed once in HMG buffer. The pellet will be resuspended in HMG buffer to OD600 of 2.0 and kept at room temperature during the course of the experiment. For the efflux inhibition or uptake kinetics, 100 μl of Hoechst or compound solution in HMG buffer with and without increasing concentrations of inhibitors at twice the concentrations indicated will be added into a black F-bottom non-binding 96-well plate. Fluorescence of Hoechst or compounds will be followed at λex=355 nm and λem=450 nm. To this, 100 μl of cells at OD600 of 2.0 was injected, shaken for 6 sec and the fluorescence of Hoechst will be monitored continuously for up to 10 min.
The inventors will use a fluorescence-based assay in which a fluorescent probe, a substrate of efflux pumps, reports EPI activities. Exponentially grown cells will be transferred into a defined medium, dispensed into 96-well plates with increasing concentrations of EPIs, and incubated for a pre-determined time. The probe will be added to cells and fluorescence recorded at different time points. Compounds with efflux inhibiting activities will increase the uptake of the probe and as a result increase the probe fluorescence (FIG. 3) (Abdali et al., 2017). The reverse kinetic curves, in which the concentration of the compound is fixed while the probe concentration varies, will be also collected. Detailed quantification of the kinetic data will be performed using two probes: a DNA dye Hoechst 33342 (HT) (Eicher et al., 2012; Nakashima et al., 2011 and Richmond et al., 2013) and a novel SLU-417 probe that were synthesized during a focused synthetic effort (Haynes et al., 2017). HT is a topoisomerase inhibitor with the MIC 2 μM in Δ6-Pore cells. In contrast, SLU-417 is relatively inert with MIC≥50 μM, which should reduce possible non-specific effect during drug uptake measurements.
Experiments were carried out in four E. coli strains, BW25113, a wild type strain with efflux pumps, ΔEfflux, a cell line in which the efflux pumps have been inactivated by removal of tolC gene and their hyperporinated variants WT-Pore and ΔEfflux-Pore. Four compounds were tested in these cell lines which show increased fluorescence intensity in cells in which the efflux pumps have been removed (FIG. 3).

As usually defined, the MIC is the least concentration at which growth counts as inhibited. Consider `CCOc1ccc(-c2nc3ccc(-c4nc5ccc(N6CCN(C)CC6)cc5[nH]4)cc3[nH]2)cc1` [HT, Hoechst 33342, reference compound], for which, in the test on Δ6-Pore cells (Δ6-Pore cells), the MIC worked out at 2 µM (≈ 0.905 µg/mL).
On to `O=C(Nc1ccc(C2=NCCN2)cc1)c1ccc(C(=O)Nc2ccc(C3=NCCN3)cc2)c(Cl)c1` [NSC 60339], for which, in test [1], the “antibacterial and anti-MFP (Membrane Fusion Protein) activities” value is “have both antibacterial and anti-MFP”; the “substrate of efflux pumps” value was “modest substrate of efflux pumps”.
The compound `CC(C)c1ccc(/C=C/C(=O)Nc2ccc(C3=NCCN3)cc2)cc1` [SLU-417] came in with an MIC in the test with Δ6-Pore cells (Pseudomonas aeruginosa) of no less than 50 µM. In addition, the intracellular uptake result in test [2] is “increases”.
In the case of `O=C(Nc1ccc(C2=NCCN2)cc1)c1ccc(-c2cc(Cl)cc(Cl)c2)s1` [SLU-446], the intracellular uptake result in test [2] is “increases”.
Take `COc1ccc(/C=C/C(=O)Nc2ccc(C3=NCCN3)cc2)cc1` [SLU-448]: the intracellular uptake entry in test [2] was “increases”.
For `O=C(Nc1ccc(C2=NCCN2)cc1)c1cc2cc(Cl)ccc2o1` [SLU-843], the intracellular uptake result in test [2] is given as “increases”.

Source of the values: patent US11092549B2, “Fluorescent probes for drug permeability in gram negative bacteria” (Saint Louis University, priority 2018, dated 2021).
